In PMC10979003, “Development and crystal structures of a potent second-generation dual degrader of BCL-2 and BCL-xL” (Nature Communications, 2024):

Legend:
Jurkat cells = assay: TMT-based proteomics in Jurkat cells; assay type: cell-based, human; conditions: 100 nM, 8 h
Procedure: To further assess the cellular selectivity of 753b and WH244 for BCL-xL/BCL-2 proteins, multiplexed tandem mass tag (TMT) labeling mass spectrometry proteomic experiments were performed to monitor protein levels in an unbiased fashion. Jurkat cells were treated in triplicate with DMSO, 100 nM 753b or 100 nM WH244 for 8 h (Supplementary Fig. 10b). […] To assess BCL-xL and BCL-2 degradation, we utilized western blotting with the same samples, and successfully verified the degradation of both BCL-xL and BCL-2 proteins induced by 753b and WH244, respectively (Supplementary Fig. 10c). We speculate that these apparently contradictory results may be attributable to some of the limitations of TMT technology, where low TMT-labeling efficiency for some proteins and peptides, can lead to inability to detect these proteins by TMT-based proteomics analysis. This limitation has been observed in several other reported PROTAC studies[52],[53]. […]
Proteins were identified and MS3 reporter ions quantified using MaxQuant (version 2.2.0.0; Max Planck Institute) against the Homo sapiens UniprotKB database (March 2023) with a parent ion tolerance of 3 ppm, a fragment ion tolerance of 0.5 Da, and a reporter ion tolerance of 0.003 Da. […] Protein TMT MS3 reporter ion intensity values were assessed for quality using ProteiNorm for a systematic evaluation of normalization methods. […]

HeLa cells = assay: DIA proteomics in HeLa cells; assay type: cell-based, human; conditions: for Off-target effects (two proteomic analyses): TMT (Jurkat) and DIA (HeLa) proteomics
Description: Given the somewhat inconclusive nature of the TMT results, we made additional efforts to characterize the on-target and off-target effects of our BCL-xL and BCL-2 dual PROTACs using a different proteomics analysis technique, i.e. the Data-Independent Acquisition (DIA) proteomics approach. This approach can avoid the limitation of TMT-labeling deficiency for some proteins/peptides. Specifically, we conducted DIA proteomics profiling using HeLa cells because these cells are primarily dependent on MCL-1 for survival and thus resistant to apoptosis after BCL-xL and BCL-2 degradation. To our delight, we were able to identify over 7200 proteins, including both BCL-xL and BCL-2 (Supplementary Fig. 10d), using this method.
Cells were lysed in buffer containing 5% SDS/50 mM triethylammonium bicarbonate (TEAB) in the presence of protease and phosphatase inhibitors (Halt; Thermo Scientific) and nuclease (Pierce™ Universal Nuclease for Cell Lysis; Thermo Scientific). Aliquots corresponding to 100 µg protein (EZQ™ Protein Quantitation Kit; Thermo Scientific) were reduced with tris(2-carboxyethyl)phosphine hydrochloride (TCEP), alkylated in the dark with iodoacetamide and applied to S-Traps (mini; Protifi) for tryptic digestion (sequencing grade; Promega) in 50 mM triethylammonium bicarbonate (TEAB). Peptides were eluted from the S-Traps with 0.2% formic acid in 50% aqueous acetonitrile and quantified using Pierce™ Quantitative Fluorometric Peptide Assay (Thermo Scientific). Data-independent acquisition mass spectrometry (DIA-MS) was conducted on a Thermo Scientific Orbitrap Exploris 480 mass spectrometer. […] A pool was made of the three control (DMSO) samples, and 2-µg peptide aliquots were analyzed using gas-phase fractionation and 4-m/z windows (30k resolution for precursor and product ion scans) to create an empirically-corrected DIA chromatogram library[72] by searching against a Prosit-generated predicted spectral library[73] based on the UniProt_Human_ref 9606_20220216 protein sequence database (20,588 sequences; 11,394,277 residues). […]

Structure (SMILES) | Proteins significantly down-regulated among approximately 6000 identified (Jurkat cells) | Off-target effects (two proteomic analyses) (HeLa cells) | Degradation of BCL-xL and BCL-2 by DIA proteomics (comparison) (HeLa cells; HeLa cells)
Cc1ncsc1-c1ccc(C(C)NC(=O)C2CC(O)CN2C(=O)C(NC(=O)CCCCCCC(=O)N2CCN(CC3(C)CCC(c4ccc(Cl)cc4)=C(CN4CCN(c5ccc(C(=O)NS(=O)(=O)c6ccc(NC(CCN7CCOCC7)CSc7ccccc7)c(S(=O)(=O)C(F)(F)F)c6)cc5)CC4)C3)CC2)C(C)(C)C)cc1 (centres unmarked) [753b] | none of which exhibited significant down-regulation | limited off-target effects | 
Cc1ncsc1-c1ccc([C@H](C)NC(=O)[C@@H]2C[C@@H](O)CN2C(=O)[C@@H](NC(=O)CN2CCN(CC(=O)N3CCN(C[C@]4(C)CCC(c5ccc(Cl)cc5)=C(CN5CCN(c6ccc(C(=O)NS(=O)(=O)c7ccc(N[C@H](CCN8C[C@@H]9C[C@H]8CO9)CSc8ccccc8)c(S(=O)(=O)C(F)(F)F)c7)cc6)CC5)C4)CC3)CC2)C(C)(C)C)cc1 [WH244] | none of which exhibited significant down-regulation | limited off-target effects | superior efficacy in the degradation of both proteins
